In patent US9073821B2, “Hydroxamic acid derivative” (priority 2010, dated 2015):
≈ marks a conversion by molar mass, not a printed value. Read-outs that look alike come from different tables or passages of the source.

Columns and labels:
[1] = biological target: Pseudomonas aeruginosa LpxC enzyme (Pseudomonas aeruginosa (strain ATCC 15692 / DSM 22644 / CIP 104116 / JCM 14847 / LMG 12228 / 1C / PRS 101 / PAO1), UniProt P47205); test: biochemical; format: biochemical
[2] = test system: Pseudomonas aeruginosa strain TS88 (clinical isolate); test: Antimicrobial activity, MIC by broth microdilution; format: cell-based; details: 18 hours
Text: (§1) Test 3: Evaluation of Antimicrobial Activity For minimum inhibitory concentration (MIC) measurement, the following broth microdilution method was applied as adapted from the standard procedure recommended by the CLSI (Clinical and Laboratory Standards Institute). The bacteria used were Pseudomonas aeruginosa strain TS88 (clinical isolate), E. coli strain ATCC25922, and Klebsiella pneumoniae strain ATCC13883. After culture overnight on a heart infusion agar medium, the cells of a test bacterium were scraped off and suspended to give a turbidity of level 0.5 on the McFarland scale; the suspension was then diluted 10 fold to prepare an inoculum solution. A 0.005 mL aliquot of the inoculum solution was inoculated in a cation-adjusted Mueller-Hinton broth medium containing a test compound and cultured at 35° C. for 18 hours. A minimum drug concentration at which no cell growth was visible to the naked eye was designated as MIC.

[3] = test system: Klebsiella pneumoniae strain ATCC13883; test: Antimicrobial activity, MIC by broth microdilution; format: cell-based; details: Table 4, 35° C., 18 hours, read-out: Klebsiella pneumoniae ATCC 13883 strain MIC
Text: as §1

E. coli strain ATCC25922 = test: Antimicrobial activity, MIC by broth microdilution; format: cell-based; details: Escherichia coli, Table 4, 35° C., 18 hours, read-out: E. coli ATCC 25922 strain MIC
Text: as §1

[4] = Table 1, read-out: Pseudomonas aeruginosa LpxC IC50
[5] = Table 1, 35° C., read-out: MIC Pseudomonas aeruginosa TS88 strain
[6] = Table 4, 35° C., read-out: Pseudomonas aeruginosa TS88 strain MIC

SMILES: CNC(=O)C(C(=O)NO)N(C)C(=O)c1ccc(-c2ccc(NC)cc2)cc1 (stereo not drawn) [Compound 2, N-hydroxy-N′-methyl-2-(methyl {[4′-(methylamino)biphenyl-4-yl]carbonyl}amino)propanediamide]
- IC50 [1, 4]: 7.1 nM
- MIC [2, 5]: 0.5 mg/L (≈ 1.35 µM)

SMILES: CNC(=O)C(C(=O)NO)N(C)C(=O)c1ccc(-c2ccc(OC)cc2)cc1 (stereo not drawn) [Compound 3]
- IC50 [1, 4]: 3.3 nM
- MIC [2, 5]: 0.5 mg/L (≈ 1.35 µM)

SMILES: CNC(=O)C(C(=O)NO)N(C)C(=O)c1ccc(-c2ccc(COC)cc2)cc1 (stereo not drawn) [Compound 4, N-hydroxy-2-[{[4′-(methoxymethyl)biphenyl-4-yl]carbonyl}(methyl)amino]-N′-methylpropanediamide]
- IC50 [1, 4]: 6.1 nM
- MIC [2, 5]: 1 mg/L (≈ 2.59 µM)

SMILES: CNC(=O)C(C(=O)NO)N(C)C(=O)c1ccc(-c2ccc(C)cc2)cc1 (stereo not drawn) [Compound 5, N-hydroxy-N′-methyl-2-{methyl[(4′-methylbiphenyl-4-yl)carbonyl]amino}propanediamide]
- IC50 [1, 4]: 3.7 nM
- MIC [2, 5]: 0.25 mg/L (≈ 0.703 µM)

SMILES: CNC(=O)C(C(=O)NO)N(C)C(=O)c1ccc(-c2ccc(F)cc2)cc1 (stereo not drawn) [Compound 6, 2-{[(4′-fluorobiphenyl-4-yl)carbonyl](methyl)amino}-N-hydroxy-N′-methylpropanediamide]
- IC50 [1, 4]: 7.1 nM
- MIC [2, 5]: 1 mg/L (≈ 2.78 µM)

SMILES: CNC(=O)C(C(=O)NO)N(C)C(=O)c1ccc(-c2ccc3c(c2)OCO3)cc1 (stereo not drawn) [Compound 8, 2-{[4-(1,3-benzodioxol-5-yl)benzoyl](methyl)amino}-N-hydroxy-N′-methylpropanediamide]
- IC50 [1, 4]: 5 nM
- MIC [2, 5]: 0.5 mg/L (≈ 1.3 µM)

SMILES: CNC(=O)C(C(=O)NO)N(C)C(=O)c1ccc(-c2ccc3c(c2)CCN3C)cc1 (stereo not drawn) [Compound 40, N-hydroxy-N′-methyl-2-{methyl[4-(1-methyl-2,3-dihydro-1H-indol-5-yl)benzoyl]amino}propanediamide]
- IC50 [1, 4]: 4.7 nM
- MIC [2, 5]: 1 mg/L (≈ 2.52 µM)

SMILES: CNC(=O)C(C(=O)NO)N(C)C(=O)c1ccc(-c2ccc(N(C)C)cc2)cc1 (stereo not drawn) [Compound 43, 2-[{[4′-(dimethylamino)biphenyl-4-yl]carbonyl}(methyl)amino]-N-hydroxy-N′-methylpropanediamide]
- IC50 [1, 4]: 7.2 nM
- MIC [2, 5]: 1 mg/L (≈ 2.6 µM)

SMILES: CNC(=O)C(C(=O)NO)N(C)C(=O)c1ccc(-c2ccc(OC(F)(F)F)cc2)cc1 (stereo not drawn) [Compound 52, N-hydroxy-N′-methyl-2-(methyl {[4′-(trifluoromethoxy)biphenyl-4-yl]carbonyl}amino)propanediamide]
- IC50 [1, 4]: 4.6 nM
- MIC [2, 5]: 1 mg/L (≈ 2.35 µM)

SMILES: CNC(=O)C(C(=O)NO)N(C)C(=O)c1ccc(-c2ccc(C(F)(F)F)cc2)cc1 (stereo not drawn) [Compound 56, N-hydroxy-N′-methyl-2-(methyl {[4′-(trifluoromethyl)biphenyl-4-yl]carbonyl}amino)propanediamide]
- IC50 [1, 4]: 6.7 nM
- MIC [2, 5]: 1 mg/L (≈ 2.44 µM)

SMILES: CNC(=O)C(C(=O)NO)N(C)C(=O)c1ccc(-c2ccc(NCCCCCN3CCOCC3)cc2)cc1 (stereo not drawn) [Compound 58, N-hydroxy-N′-methyl-2-{methyl[(4′-{[5-(morpholin-4-yl)pentyl]amino}biphenyl-4-yl)carbonyl]amino}propanediamide]
- IC50 [1, 4]: 8.3 nM
- MIC [2, 5]: 4 mg/L (≈ 7.82 µM)

SMILES: CNC(=O)C(C(=O)NO)N(C)C(=O)c1ccc(-c2ccccc2)c(F)c1 (stereo not drawn) [Compound 61, 2-{[(2-fluorobiphenyl-4-yl)carbonyl](methyl)amino}-N-hydroxy-N′-methylpropanediamide]
- IC50 [1, 4]: 9.2 nM
- MIC [2, 5]: 2 mg/L (≈ 5.57 µM)

SMILES: CNc1ccc(-c2ccc(C(=O)N(C)C(C(=O)NO)C(=O)NCc3cc(C)on3)cc2)cc1 (stereo not drawn) [Compound 77, N-hydroxy-2-(methyl {[4′-(methylamino)biphenyl-4-yl]carbonyl}amino)-N′-[(5-methyl-1,2-oxazol-3-yl)methyl]propanediamide]
- IC50 [1, 4]: 7.5 nM
- MIC [2, 5]: 4 mg/L (≈ 8.86 µM)

SMILES: CNC(=O)C(C(=O)NO)N(C)C(=O)c1ccc(-c2ccc3c(c2)OC(OC)O3)cc1 (stereo not drawn) [Compound 94, N-hydroxy-2-{[4-(2-methoxy-1,3-benzodioxol-5-yl)benzoyl](methyl)amino}-N′-methylpropanediamide]
- IC50 [1, 4]: 5.6 nM
- MIC [2, 5]: 2 mg/L (≈ 4.81 µM)

SMILES: CNC(=O)C(C(=O)NO)N(C)C(=O)c1ccc(-c2ccc(OCCO)cc2)cc1 (stereo not drawn) [Compound 153, N-hydroxy-2-[{[4′-(2-hydroxyethoxy)biphenyl-4-yl]carbonyl}(methyl)amino]-N′-methylpropanediamide]
- IC50 [1, 4]: 5.7 nM
- MIC [2, 5]: 2 mg/L (≈ 4.98 µM)

SMILES: Cc1cc(CNC(=O)C(C(=O)NO)N(C)C(=O)c2ccc(-c3ccccc3)cc2)no1 (stereo not drawn) [Compound 172, 2-[(Biphenyl-4-ylcarbonyl)(methyl)amino]-N-hydroxy-N′-[(5-methyl-1,2-oxazol-3-yl)methyl]propanediamide]
- IC50 [1, 4]: 7.1 nM
- MIC [2, 5]: 2 mg/L (≈ 4.73 µM)

SMILES: CNC(=O)C(C(=O)NO)N(C)C(=O)c1ccc(-c2ccc3c(c2)CCO3)cc1 (stereo not drawn) [Compound 188, 2-{[4-(2,3-dihydro-1-benzofuran-5-yl)benzoyl](methyl)amino}-N-hydroxy-N′-methylpropanediamide]
- IC50 [1, 4]: 5 nM
- MIC [2, 5]: 0.5 mg/L (≈ 1.3 µM)

SMILES: CNC(=O)C(C(=O)NO)N(C)C(=O)c1ccc(C#Cc2ccccc2)cc1 (stereo not drawn) [Compound 218, N-hydroxy-N′-methyl-2-{methyl[4-(phenylethynyl)benzoyl]amino}propanediamide]
- IC50 [1, 4]: 7.2 nM
- MIC [2, 5]: 1 mg/L (≈ 2.74 µM)

SMILES: CNC(=O)C(C(=O)NO)N(C)C(=O)c1ccc(-c2ccc(CF)cc2)cc1 (stereo not drawn) [Compound 237, 2-[{[4′-(fluoromethyl)biphenyl-4-yl]carbonyl}(methyl)amino]-N-hydroxy-N′-methylpropanediamide]
- IC50 [1, 4]: 4.5 nM
- MIC [2, 5]: 0.5 mg/L (≈ 1.34 µM)

SMILES: CNC(=O)C(C(=O)NO)N(C)C(=O)c1ccc(-c2ccc3c(c2)OCC3)cc1 (stereo not drawn) [Compound 271, 2-{[4-(2,3-dihydro-1-benzofuran-6-yl)benzoyl](methyl)amino}-N-hydroxy-N′-methylpropanediamide]
- IC50 [1, 4]: 5 nM
- MIC [2, 5]: 0.5 mg/L (≈ 1.3 µM)

SMILES: CNC(=O)C(C(=O)NO)N(C)C(=O)c1ccc(-c2ccc(C#CCOC)cc2)cc1 (stereo not drawn) [Compound 405, N-hydroxy-2-[{[4′-(3-methoxyprop-1-yn-1-yl)biphenyl-4-yl]carbonyl}(methyl)amino]-N′-methylpropanediamide]
- IC50 ([1]; Table 4, read-out: Pseudomonas aeruginosa LpxC IC50): 2.9 nM
- IC50 ([1]; inhibitory activity on Pseudomonas aeruginosa LpxC enzyme, class symbols A/B/C, read-out: Enzyme inhibitory activity): < 10 nM
- MIC [3]: 4 mg/L (≈ 9.77 µM)
- MIC [2, 6]: 0.5 mg/L (≈ 1.22 µM)
- MIC (E. coli strain ATCC25922): 0.5 mg/L (≈ 1.22 µM)

SMILES: CNC(=O)[C@@](C)(C(=O)NO)N(C)C(=O)c1ccc(-c2ccc(SC)cc2)cc1 [Compound 406, (2S)-N-hydroxy-N′,2-dimethyl-2-(methyl {[4′-(methylsulfanyl)biphenyl-4-yl]carbonyl}amino)propanediamide]
- MIC [3]: 0.5 mg/L (≈ 1.25 µM)
- MIC [2, 6]: 0.5 mg/L (≈ 1.25 µM)
- MIC (E. coli strain ATCC25922): 0.125 mg/L (≈ 0.311 µM)

SMILES: CNC(=O)[C@@](C)(C(=O)NO)N(C)C(=O)c1ccc(C#Cc2ccc(CN3CC4(COC4)C3)cc2)cc1 [Compound 416, (2S)-N-hydroxy-N′,2-dimethyl-2-{methyl[(4-{[4-(2-oxa-6-azaspiro[3.3]hept-6-ylmethyl)phenyl]ethynyl}phenyl)carbonyl]amino}propanediamide]
- MIC [3]: 2 mg/L (≈ 4.08 µM)
- MIC [2, 6]: 1 mg/L (≈ 2.04 µM)
- MIC (E. coli strain ATCC25922): 0.5 mg/L (≈ 1.02 µM)

SMILES: CNC(=O)[C@@](C)(C(=O)NO)N(C)C(=O)c1ccc(C#Cc2ccc(CNCc3ccco3)cc2)cc1 [Compound 417, (2S)-2-[({4-[(4-{[(furan-2-ylmethyl)amino]methyl}phenyl)ethynyl]phenyl}carbonyl)(methyl)amino]-N-hydroxy-N′,2-dimethylpropanediamide]
- MIC [3]: 0.25 mg/L (≈ 0.512 µM)
- MIC [2, 6]: 0.5 mg/L (≈ 1.02 µM)
- MIC (E. coli strain ATCC25922): 0.0625 mg/L (≈ 0.128 µM)

SMILES: CNC(=O)[C@@](C)(C(=O)NO)N(C)C(=O)c1ccc(C#Cc2ccc(C3(NC)CC3)cc2)cc1 [Compound 435, (2S)-N-hydroxy-N′,2-dimethyl-2-(methyl {[4-({4-[1-(methylamino)cyclopropyl]phenyl}ethynyl)phenyl]carbonyl}amino)propanediamide]
- MIC [3]: 2 mg/L (≈ 4.46 µM)
- MIC [2, 6]: 1 mg/L (≈ 2.23 µM)
- MIC (E. coli strain ATCC25922): 1 mg/L (≈ 2.23 µM)

SMILES: CNC(=O)[C@@](C)(C(=O)NO)N(C)C(=O)c1ccc(C#Cc2ccc(CNC3CC3)cc2)cc1 [Compound 553, (2S)-2-[{[4-({4-[(cyclopropylamino)methyl]phenyl}ethynyl)phenyl]carbonyl}(methyl)amino]-N-hydroxy-N′,2-dimethylpropanediamide]
- MIC [3]: 0.5 mg/L (≈ 1.11 µM)
- MIC [2, 6]: 0.5 mg/L (≈ 1.11 µM)
- MIC (E. coli strain ATCC25922): 0.25 mg/L (≈ 0.557 µM)

SMILES: CNC(=O)[C@@](C)(C(=O)NO)N(C)C(=O)c1ccc(C#Cc2ccc(CN3CC(OCCF)C3)cc2)cc1 [Compound 559, (2S)-2-[({4-[(4-{[3-(2-fluoroethoxy)azetidin-1-yl]methyl}phenyl)ethynyl]phenyl}carbonyl)(methyl)amino]-N-hydroxy-N′,2-dimethylpropanediamide]
- MIC [3]: 1 mg/L (≈ 1.96 µM)
- MIC [2, 6]: 1 mg/L (≈ 1.96 µM)
- MIC (E. coli strain ATCC25922): 0.25 mg/L (≈ 0.49 µM)

SMILES: CNC(=O)[C@@](C)(C(=O)NO)N(C)C(=O)c1ccc(C#Cc2ccc(CN3CCC(OC)CC3)cc2)cc1 [Compound 565, (2S)-N-hydroxy-2-[{[4-({4-[(4-methoxypiperidin-1-yl)methyl]phenyl}ethynyl)phenyl]carbonyl}(methyl)amino]-N′,2-dimethylpropanediamide]
- MIC [3]: 2 mg/L (≈ 3.95 µM)
- MIC [2, 6]: 1 mg/L (≈ 1.97 µM)
- MIC (E. coli strain ATCC25922): 0.5 mg/L (≈ 0.987 µM)
